The values below come from ChEMBL document CHEMBL1201862, “PubChem BioAssay data set” (2004).

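Step 1: Grow cells in 96-well plates. Step 2: Expose to compound for 48 hours at 5 concentrations. Step 3: Interpolate endpoints linearly; if unreached, use highest concentration. At the GI50, growth is halved.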 Active and inactive are the calls of the source. Rule as the data show it: active = GI50 up to about 1.1 µM and inactive = higher.

Some test systems named below: A549; UO-31; MOLT-4; HCT-15; RXF 393; T47D; HCT-116; TK-10; K562; UACC-62; CAKI-1; SN12C; SK-OV-3; NCI-H23; Malme-3M; SNB-75; CCRF-CEM; NCI-H522; NCI-H226; OVCAR-4.
What all share (experiment): growth of human tumour cells (NCI), 48 h

For `S=C(N/N=C/c1ccccn1)N1CCCCC1`, the GI50 is < 0.0129 µM (active) with A549; 0.0131 µM (active) with UO-31; < 0.01 µM (active) in the assay with MOLT-4; less than 0.01 µM in the assay on HCT-15; 0.0705 µM (active) with RXF 393; < 0.01 µM (active) in the assay on T47D. Besides, the GI50 with HCT-116 was < 0.01 µM (active); in the assay on TK-10, 0.0205 µM (active); in the assay with K562, < 0.01 µM (active); with UACC-62, 0.0497 µM (active); with CAKI-1, < 0.0153 µM (active); in the assay on SN12C it was < 0.0394 µM (active). Also, the GI50 with SK-OV-3 is < 0.01 µM (active); in the assay with NCI-H23, < 0.01 µM (active); in the assay with Malme-3M it was < 0.0397 µM (active); in the assay on SNB-75 it was 0.0315 µM (active); in the assay with CCRF-CEM, < 0.01 µM (active).

Turning to `Clc1ccc(OCc2nnc(COc3ccc(OCc4nnc(COc5ccc(Cl)cc5Cl)o4)c(Cl)c3)o2)c(Cl)c1`, the GI50 was 32 µM (inactive) in the assay on A549; 17.9 µM (inactive) in the assay on UO-31; 89.7 µM with HCT-15; 20.1 µM (inactive) in the assay with RXF 393; 78.3 µM (inactive) with T47D; 44.1 µM (inactive) in the assay with HCT-116. Moreover, the GI50 in the assay on TK-10 is 76 µM (inactive); with K562, 24.3 µM (inactive); with UACC-62, 40.5 µM (inactive); in the assay on CAKI-1 it was 24.8 µM (inactive); in the assay on SN12C, 40.3 µM (inactive); with NCI-H23, 48.1 µM (inactive). Also, the GI50 in the assay on Malme-3M is 37.6 µM (inactive); in the assay on CCRF-CEM, 17.5 µM (inactive); with NCI-H522, 18.1 µM (inactive); with NCI-H226, 36.2 µM (inactive).

`C[C@]12CC(c3ccccc3O1)C(C(=O)Nc1nc(C34CC5CC(CC(C5)C3)C4)cs1)C(=O)N2` (stereo partly specified): the GI50 in the assay with A549 was > 100 µM (inactive); in the assay with MOLT-4 it was > 100 µM (inactive); in the assay on HCT-15, more than 100 µM; in the assay on RXF 393 it was > 100 µM (inactive); in the assay with T47D, > 100 µM (inactive); in the assay on HCT-116, 98.9 µM (inactive). In addition, the GI50 with K562, with UACC-62, with OVCAR-4, in the assay on CAKI-1, in the assay with SN12C and with SK-OV-3 was > 100 µM (inactive) throughout. Besides, the GI50 was > 100 µM (inactive) in the assay with NCI-H23; 34.7 µM (inactive) in the assay with Malme-3M; > 100 µM (inactive) in the assay on SNB-75; 89.1 µM (inactive) with CCRF-CEM; > 100 µM (inactive) with NCI-H226.

Consider `O=C1OCN(c2ccccc2)C12CCN(Cc1ccccc1)CC2`, for which the GI50 was 41.2 µM (inactive) in the assay with A549; 51.3 µM (inactive) in the assay with UO-31; 13.6 µM (inactive) in the assay with MOLT-4; 33.7 µM in the assay on HCT-15; 16.9 µM (inactive) in the assay on RXF 393; 23 µM (inactive) in the assay with T47D. Further, the GI50 was 31.7 µM (inactive) in the assay with HCT-116; 32.8 µM (inactive) with TK-10; 5.35 µM (inactive) in the assay with K562; 18.6 µM (inactive) with UACC-62; 35.8 µM (inactive) in the assay on OVCAR-4; 45 µM (inactive) with CAKI-1. Further, the GI50 is 42.6 µM (inactive) in the assay on SN12C; 74.6 µM (inactive) in the assay with SK-OV-3; 53.5 µM (inactive) in the assay on NCI-H23; 18.1 µM (inactive) with Malme-3M; 19.4 µM (inactive) with SNB-75; 15.5 µM (inactive) with CCRF-CEM. Moreover, the GI50 with NCI-H226 was > 100 µM (inactive).

On to `CC1=NN(c2ccccc2)C(=O)/C1=C/c1ccc(O)cc1`, for which the GI50 in the assay with A549 was > 100 µM (inactive); in the assay on MOLT-4 it was > 100 µM (inactive); with HCT-15, more than 100 µM; with RXF 393 it was > 100 µM (inactive); in the assay on T47D, > 100 µM (inactive); with HCT-116 it was > 100 µM (inactive). Moreover, the GI50 in the assay with TK-10, in the assay with K562, in the assay with UACC-62, with OVCAR-4, in the assay on CAKI-1 and in the assay on SN12C was > 100 µM (inactive) each time. The GI50 with SK-OV-3, with NCI-H23, in the assay on Malme-3M, in the assay with CCRF-CEM and with NCI-H226 was > 100 µM (inactive) in each case.

Regarding `COc1ccc(C(=O)c2nc3ccccc3nc2N2CCN(c3ccccc3)CC2)cc1OC`, the GI50 in the assay on A549 is > 100 µM (inactive); with UO-31 it was > 100 µM (inactive); in the assay on MOLT-4, > 100 µM (inactive); in the assay on HCT-15 it was more than 100 µM; in the assay on RXF 393 it was > 100 µM (inactive); with T47D, > 100 µM (inactive). Moreover, the GI50 in the assay with HCT-116, in the assay with TK-10, in the assay on K562, in the assay on UACC-62, in the assay with OVCAR-4 and in the assay on CAKI-1 was > 100 µM (inactive) in each case. The GI50 with SK-OV-3, in the assay with NCI-H23, in the assay on Malme-3M, in the assay with SNB-75, in the assay with CCRF-CEM and in the assay with NCI-H522 was > 100 µM (inactive) throughout.

Regarding `O=C1C=C2CO[C@H]3OC[C@H](O)[C@@H]1[C@@H]23`, the GI50 in the assay on A549 is > 100 µM (inactive); in the assay with UO-31 it was 37.3 µM (inactive); in the assay on MOLT-4 it was 28.9 µM (inactive); in the assay with HCT-15, 44 µM; in the assay on RXF 393, 19.9 µM (inactive); with T47D, 25.5 µM (inactive). In addition, the GI50 in the assay on HCT-116 is 88.1 µM (inactive); in the assay on TK-10 it was 59.3 µM (inactive); in the assay on K562, 26.9 µM (inactive); with UACC-62 it was 67.5 µM (inactive); in the assay with CAKI-1, 29 µM (inactive); in the assay with SN12C, 22.9 µM (inactive). In addition, the GI50 is > 100 µM (inactive) in the assay on SK-OV-3; > 100 µM (inactive) in the assay on NCI-H23; 21.6 µM (inactive) in the assay with Malme-3M; 43 µM (inactive) with SNB-75; 19 µM (inactive) in the assay on CCRF-CEM; 16.5 µM (inactive) in the assay with NCI-H522.

For `CC(=O)Nc1ccc(N2C(=O)CS(=O)(=O)C2c2cccc(Oc3ccccc3)c2)cc1` (stereo unspecified), the GI50 is 20 µM (inactive) with A549; 17.5 µM (inactive) in the assay with UO-31; 29.7 µM (inactive) in the assay with MOLT-4; 17.3 µM with HCT-15; 18.9 µM (inactive) in the assay on RXF 393; 15.9 µM (inactive) in the assay with T47D. The GI50 is 20.1 µM (inactive) in the assay on HCT-116; 20.4 µM (inactive) in the assay on TK-10; 18.8 µM (inactive) in the assay on K562; 13.4 µM (inactive) with UACC-62; 14.2 µM (inactive) in the assay with OVCAR-4; 15.1 µM (inactive) with SN12C. For the same compound, the GI50 is 27.4 µM (inactive) in the assay on SK-OV-3; 18.5 µM (inactive) with NCI-H23; 20.4 µM (inactive) in the assay on Malme-3M; 19.4 µM (inactive) in the assay with SNB-75; 53.1 µM (inactive) with CCRF-CEM; 17.2 µM (inactive) in the assay with NCI-H522. Besides, the GI50 with NCI-H226 was 17.2 µM (inactive).

For the compound `Clc1cc(OC23CC4CC(CC(C4)C2)C3)nc(Cl)n1`, the GI50 in the assay with A549 is > 100 µM (inactive); with UO-31 it was 25.4 µM (inactive); in the assay with MOLT-4, 34 µM (inactive); in the assay with HCT-15, 29.6 µM; in the assay on RXF 393 it was 27.8 µM (inactive); in the assay with T47D, > 100 µM (inactive). Also, the GI50 in the assay on HCT-116 was 46.3 µM (inactive); with TK-10 it was > 100 µM (inactive); with K562, 21.9 µM (inactive); in the assay with UACC-62, 52.4 µM (inactive); in the assay with OVCAR-4, 40.9 µM (inactive); with CAKI-1, 1.94 µM (inactive). For the same compound, the GI50 with SN12C was > 100 µM (inactive); with SK-OV-3 it was > 100 µM (inactive); with NCI-H23, 58.7 µM (inactive); in the assay on Malme-3M it was > 100 µM (inactive); in the assay with SNB-75, 64.6 µM (inactive); in the assay with CCRF-CEM, 23.6 µM (inactive). Further, in the assay with NCI-H522, the GI50 was 90.2 µM (inactive).

For `c1ccc(CCN2CCN=C2Cc2ccccc2)cc1`, the GI50 was > 100 µM (inactive) in the assay with A549; 99.1 µM (inactive) with UO-31; more than 100 µM in the assay on HCT-15; > 100 µM (inactive) in the assay on RXF 393; > 100 µM (inactive) in the assay with T47D; > 100 µM (inactive) with HCT-116. Besides, the GI50 with TK-10 is > 100 µM (inactive); in the assay with K562, 29.2 µM (inactive); with UACC-62, > 100 µM (inactive); in the assay with OVCAR-4, > 100 µM (inactive); in the assay with SN12C it was > 100 µM (inactive); in the assay on SK-OV-3 it was > 100 µM (inactive). Also, the GI50 in the assay with NCI-H23 was > 100 µM (inactive); with Malme-3M it was > 100 µM (inactive); in the assay on SNB-75, > 100 µM (inactive); with CCRF-CEM, 37.3 µM (inactive); with NCI-H522 it was > 100 µM (inactive); in the assay on NCI-H226, > 100 µM (inactive).

As to `COC1CC(n2ccc(=O)[nH]c2=O)OC1CO` (stereo unspecified), the GI50 in the assay on A549 is > 100 µM (inactive); with UO-31 it was > 100 µM (inactive); with MOLT-4, > 100 µM (inactive); in the assay on HCT-15 it was more than 100 µM; with RXF 393, > 100 µM (inactive); in the assay on T47D it was > 100 µM (inactive). Moreover, the GI50 in the assay with HCT-116, in the assay on K562, with UACC-62, with OVCAR-4, with CAKI-1 and with SN12C was > 100 µM (inactive) throughout. Further, the GI50 with SK-OV-3, in the assay on NCI-H23, with Malme-3M, in the assay with CCRF-CEM, with NCI-H522 and with NCI-H226 was > 100 µM (inactive) in each case.
